# According to US9265774B2, “Methods, compounds and pharmaceutical compositions for treating anxiety and mood disorders” (New York University, priority 2011, dated 2016):
# Columns and labels:
# [1] = tested on: CMS reduction of intake of sweetened milk; assay: Chronic mild stress (CMS)-anhedonia model, consumption of sweetened milk; format: in vivo; settings: acute i.p. dp6FNE
# [2] = tested on: model of chronic depression in mice (repeated forced swim)
# Text: We administered the pro-drugs shortly before one or more tests of antidepressant activity including reversal of immobility during tail suspension and forced swimming and attenuation of anhedonia produced by endotoxin administration. […] (Stone et al., Eur. J. Pharmacol. (2001) 420: 97-102) Because dp6FNE like all other antidepressants has an initial anorexic effect and acutely reduces the consumption of sweet solutions, in the test for anhedonia it was necessary to employ a non-nutritive hedonic behavior, FUST (sniffing of estrous female urine). […] (Stone et al., Neuropsychopharmacology (2011) 14: 319-331); Sun et al., J. Neurosci. Methods (2003) 126:35-40; Sun et al., Behavioral Pharmacology (2008) 19: 334-338).
# Mice were swum for 15 min/d on 4 d and tested for the response to acute i.p dp6FNE (1 or 3 mg/kg) alone or in combination with 8-OHDPAT (0.05 mg/kg) and corticosterone (3 mg/kg) on the 5th and final swim (15 min after drug administration). […] Comparison groups receiving currently available antidepressants were treated acutely i.p. or chronically (14 d osmotic pumps) with either desmethylimipramine (DMI) (10 mg/kg), fluoxetine (5 mg/kg), escitalopram (5 mg/kg), bupropion (10 mg/kg) or ketamine (10 mg/kg).
# Although corticosteroids are well known to produce depression (Gourley et al., Biol Psychiatry (2008) 64: 884-890), this occurs at high doses only. […] Mice were swum for 3 d and given either vehicle (0.8% ethanol) or corticosterone (12.5 μg/ml) in their drinking water.
# As described in Example 4a, the cocktail was tested in a mouse model of chronic depression (RFS).
# [3] = tested on: Fos expression in the LC; assay: Fos expression in the LC in the tail suspension test; format: in vivo, mice; settings: dp6FNE 3 mg/kg i.p. before a 6 min tail suspension test, with prazosin 0.2 mg/kg
# Method: (§1) In the RFS study, mice were subjected to 4 daily 15 min swims as described above and were injected i.p. with either vehicle or dp6FNE (3 mg/kg) 15 min prior to the 5th swim. In the TST study, animals were injected similarly before a 6 min test. […] The animals were anesthetized and perfused for immuno-histochemistry 70 min after the start of the swim or tail suspension. Brains were processed as described previously for double-label immunofluorescent Fos/tyrosine hydroxylase staining of all sections through the LC and for single-label Fos staining through the full PVH (Stone et al., Brain Res (2009) 1291: 21-31). […] In the tail suspended mice the analogous reductions were 53.5±7.2% (LC) and 36.7±3.1 (PVH). […] These findings thus indicate that a dose of […] dp6FNE that has preferential inhibitory effects on the LC during depression exists.
# [4] = tested on: Fos expression in the PVH; assay: Fos expression in the PVH in the tail suspension test; format: in vivo, mice; settings: dp6FNE 3 mg/kg i.p. before a 6 min tail suspension test, with prazosin 0.2 mg/kg
# Method: as §1
# [5] = tested on: endotoxin-induced inhibition of the female urine sniffing test (FUST); assay: Endotoxin (LPS)-induced anhedonia, female urine sniffing test (FUST); format: in vivo, mice
# Method: To determine if dp6FNE would also be active in an anhedonia-based model of depression, the compound was tested for its ability to reverse an endotoxin-induced inhibition of the female urine sniffing test (FUST), a non-nutritive hedonic behavior, whose impairment by stress was recently validated as a model of depression in this species (Malkesman et al., Biol Psychiatry (2010) 67: 864-871) A non-nutritive rewarding behavior was used because dp6FNE, like most other acutely administered antidepressants, has initial anorexic effects that inhibit the consumption of sweet solutions (Currie et al., Brain Res (1998) 800: 62-68). […] The repeated forced swim (RFS) model could not be used for this test because it is not a severe enough stress to reliably produce anhedonia in this species (Stone et al., Pharmacol Biochem Behav (2008b) 91: 190-195).
# Male mice were trained to sniff estrous urine (verified by vaginal smears) presented on cotton swabs in the home cage over 3 d and were matched on sniffing duration (proximity to the swab in a 3 min test) into control and depression groups. These groups were administered i.p. control solution (H2O) or lipopolysaccharide (LPS), 400 μg/kg, respectively, and were left undisturbed for 24 h, which is necessary for the initial sickness behavior, but not the anhedonia, to subside (Frenois et al., Psychoneuroendocrinology (2007) 32: 516-531).
# [6] = tested on: repeated open-space swim model; assay: Repeated open-space (forced) swim test; format: in vivo, mice; settings: acute i.p., dp6FNE at 1, 3 and 10 mg/kg given along with phentolamine 5 mg/kg i.p.
# Text: (§2) The first test involves an acute stress-induced model of depression (Steru, et al., Psychopharmacology 1985; 85: 367-370) whereas the second, a more prolonged, chronic depression that is more akin to chronic human depression (Stone, et al., Pharmacol Biochem Behav 2008; 91: 190-195).
# [7] = tested on: immobility in tail suspension test; assay: Tail suspension test (TST); format: in vivo, mice
# Method: In the RFS study, mice were subjected to 4 daily 15 min swims as described above and were injected i.p. with either vehicle or dp6FNE (3 mg/kg) 15 min prior to the 5th swim. In the TST study, animals were injected similarly before a 6 min test. […] The animals were anesthetized and perfused for immuno-histochemistry 70 min after the start of the swim or tail suspension. Brains were processed as described previously for double-label immunofluorescent Fos/tyrosine hydroxylase staining of all sections through the LC and for single-label Fos staining through the full PVH (Stone et al., Brain Res (2009) 1291: 21-31).
# To determine if dp6FNE was active in a more traditional test of antidepressant activity, it was given as above 15 min prior to a tail suspension test.
# as §2
smiles,measurement,setting,value
"CC(C)(C)C(=O)Oc1cc(F)c(C(O)CN)cc1OC(=O)C(C)(C)C (stereo not drawn) [dp6FNE, dipivalyl-6-fluoronorepinephrine]",effect on CMS reduction of sweetened milk intake,[1],eliminates the CMS reduction of intake
same,effect on food intake (hypophagia),[1],significant hypophagia
same,persistence of anti-immobility effect,"[2]; dp6FNE 0.5 mg/kg, i.p., repeated daily",at least 11 daily treatments
same,increase of distance swum,"[2]; dp6FNE 1 mg/kg acute i.p., 15 min before 5th swim, with prazosin 0.2 mg/kg",+77.5±5.2%
same,"decrease of immobility, maximum effect","[2]; dp6FNE 3 mg/kg acute i.p., 15 min before 5th swim, with prazosin 0.2 mg/kg",−39.4±16.6%
same,"signs of toxicity (reduced arousal, disheveled fur coat) after repeated treatment","[2]; repeated daily treatment, no formal measures",no obvious signs of toxicity
same,effect of oral administration on immobility,"[2]; tube fed with prazosin 0.2 mg/kg, 45 min prior to the 5th swim",dose-dependent reduction in immobility
same,reduction in gene expression (Fos) in the LC,[3],53.5±7.2%
same,reduction in gene expression (Fos) in the PVH,[4],36.7±3.1
same,"change of time sniffing, Con vs LPS","[5]; dp6FNE (1 mg/kg) i.p. with prazosin 0.2 mg/kg, 15 min before test, 24 h after LPS 400 μg/kg",+4.6±1.4%
same,effect on the FUST in the absence of endotoxin,"[5]; dp6FNE i.p. with prazosin 0.2 mg/kg, control (H2O) animals",did not significantly affect the FUST
same,acute effect in the repeated open-space swim test,[6],strong effect
same,acute effect in the repeated open-space swim test,[6]; listed as 6dpFNE,significant antidepressant action
same,immobility in tail suspension test,"[7]; 3 mg/kg i.p. with prazosin 0.2 mg/kg, 15 min prior to test",significant reduction of immobility
same,antidepressant action in the tail suspension test,"[7]; i.p. at doses of 1, 3 and 10 mg/kg, given along with phentolamine 5 mg/kg i.p.",significant antidepressant action
